Source: PubChem BioAssay AID296 (DTP/NCI, 2004)
“And” between values parts separate entries of the source, which are not always exact repeats. Identical values can stand only once. Records with an inconclusive call do not appear.

System: MX-1 breast xenograft, nude mice, tumor weight T/C
Assay: NCI In Vivo Anticancer Drug Screen. Data for tumor model Human Mammary Carcinoma MX-1 Xenograft (intrarenal inoculation) in NU/NU Swiss (nude) mice
Settings: endpoint: mean tumor weight change, higher = larger tumour
In short: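 Mice carrying the implanted tumor receive either test agent or vehicle. Tumor size or survival is then recorded for both groups. Results are stated as the treated-to-control quotient.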

[1] = dose: 75.0 mg/kg/injection, schedule: Q04DX003 (sc), vehicle: saline
[2] = dose: 150.0 mg/kg/injection, schedule: Q04DX003 (sc), vehicle: saline

COc1cc2cc3c4cc(OC)c(OC)cc4cc[n+]3c(C)c2cc1OC (tested in a mixture with another compound)
T/C [1]: 79 % of control | T/C [2]: 60 % of control

N=C(N)Sc1cc(O)ccc1O
T/C (dose: 37.5 mg/kg/injection, schedule: Q04DX003 (sc), vehicle: saline): 96 % of control | T/C [1]: 106 % of control | T/C [2]: 79 % of control | T/C (dose: 300.0 mg/kg/injection, schedule: Q04DX003 (sc), vehicle: saline): 90 % of control

Cc1cn(C2CC(F)C(CO)O2)c(=O)[nH]c1=O (stereo not drawn)
T/C (dose: 150.0 mg/kg/injection, schedule: Q04DX003 (sc), vehicle: suspension in saline): 56 % of control | T/C (dose: 300.0 mg/kg/injection, schedule: Q04DX003 (sc), vehicle: suspension in saline): 105 % of control | T/C (dose: 600.0 mg/kg/injection, schedule: Q04DX003 (sc), vehicle: suspension in saline): 111 % of control | T/C (dose: 1200.0 mg/kg/injection, schedule: Q04DX003 (sc), vehicle: suspension in saline): 93 % of control

CC[C@@]1(O)C(=O)OCc2c1cc1n(c2=O)Cc2cc3ccccc3nc2-1
T/C (dose: 1.0 mg/kg/injection, schedule: Q04DX003 (sc), vehicle: saline with Tween-80): 100 % of control | T/C (dose: 2.0 mg/kg/injection, schedule: Q04DX003 (sc), vehicle: saline with Tween-80): 58 % of control | T/C (dose: 4.0 mg/kg/injection, schedule: Q04DX003 (sc), vehicle: saline with Tween-80): 23 % of control | T/C (dose: 8.0 mg/kg/injection, schedule: Q04DX003 (sc), vehicle: saline with Tween-80): 11 % of control

CCCCCc1cc(O)c2c(c1)OC(C)(C)[C@@H]1CCC(C)=C[C@@H]21
T/C (dose: 150.0 mg/kg/injection, schedule: Q04DX003 (sc), vehicle: other): 82 % of control | T/C (dose: 300.0 mg/kg/injection, schedule: Q04DX003 (sc), vehicle: other): 81 % of control | T/C (dose: 1200.0 mg/kg/injection, schedule: Q04DX003 (sc), vehicle: other): 83 % of control

Cc1cc2nc3[nH]c4ccccc4c3nc2cc1C
T/C (dose: 100.0 mg/kg/injection, schedule: Q01DX010 (sc), vehicle: saline): 92 % of control | T/C (dose: 200.0 mg/kg/injection, schedule: Q01DX010 (sc), vehicle: saline): 103 % of control | T/C (dose: 400.0 mg/kg/injection, schedule: Q01DX010 (sc), vehicle: saline): 63 % of control | T/C (dose: 800.0 mg/kg/injection, schedule: Q01DX010 (sc), vehicle: saline): 69 % of control

CCc1ccccc1N1CCN(C(=O)c2cc(OC)c(OC)c(OC)c2)CC1
T/C (dose: 100.0 mg/kg/injection, schedule: Q04DX003 (sc), vehicle: Klucel (hydroxypropylcellulose) (HPC)): 88 % of control | T/C (dose: 200.0 mg/kg/injection, schedule: Q04DX003 (sc), vehicle: Klucel (hydroxypropylcellulose) (HPC)): 86 % of control | T/C (dose: 400.0 mg/kg/injection, schedule: Q04DX003 (sc), vehicle: Klucel (hydroxypropylcellulose) (HPC)): 50 % of control

Cc1cc(NCCN(C(C)C)C(C)C)nc(/N=C(\N)Nc2ccc(Cl)c(C(F)(F)F)c2)n1
T/C (dose: 80.0 mg/kg/injection, schedule: Q04DX003 (sc), vehicle: Klucel (hydroxypropylcellulose) (HPC)): 64 % of control | T/C (dose: 160.0 mg/kg/injection, schedule: Q04DX003 (sc), vehicle: Klucel (hydroxypropylcellulose) (HPC)): 62 % of control | T/C (dose: 320.0 mg/kg/injection, schedule: Q04DX003 (sc), vehicle: Klucel (hydroxypropylcellulose) (HPC)): 81 % of control

CN(C)N=Nc1cn[nH]c1C(N)=O
T/C (dose: 100.0 mg/kg/injection, schedule: Q04DX003 (sc), vehicle: suspension in saline): 98 % of control | T/C (dose: 200.0 mg/kg/injection, schedule: Q04DX003 (sc), vehicle: saline): 63 % of control | T/C (dose: 200.0 mg/kg/injection, schedule: Q04DX003 (sc), vehicle: suspension in saline): 67 % of control | T/C (dose: 400.0 mg/kg/injection, schedule: Q04DX003 (sc), vehicle: saline): 49 % of control | T/C (dose: 400.0 mg/kg/injection, schedule: Q04DX003 (sc), vehicle: suspension in saline): 31 % of control and 37 % of control | T/C (dose: 800.0 mg/kg/injection, schedule: Q04DX003 (sc), vehicle: saline): 13 % of control | T/C (dose: 800.0 mg/kg/injection, schedule: Q04DX003 (sc), vehicle: suspension in saline): 2 % of control and 7 % of control

Brc1ccc(C[N+]23CN4CN(CN(C4)C2)C3)cc1
T/C (dose: 75.0 mg/kg/injection, schedule: Q04DX003 (sc), vehicle: saline with Tween-80): 84 % of control | T/C (dose: 150.0 mg/kg/injection, schedule: Q04DX003 (sc), vehicle: saline with Tween-80): 99 % of control | T/C (dose: 300.0 mg/kg/injection, schedule: Q04DX003 (sc), vehicle: saline with Tween-80): 89 % of control | T/C (dose: 600.0 mg/kg/injection, schedule: Q04DX003 (sc), vehicle: saline with Tween-80): 73 % of control
